{
  "source": "patent US9511057B2",
  "about": "“Methods for treating denervation-induced muscle atrophy” (THE BOARD OF TRUSTEES OF THE LELAND STANFORD JUNIOR …, priority 2013, dated 2016)",
  "experiment": "Body weight and innervated muscle weight under rapamycin treatment (Table 2)",
  "format": "in vivo, mouse",
  "design": "key to Body weight before / Body weight after: body weight in g; Gastroc weight, innervated muscle: unit not given here",
  "conditions": "for Gastroc weight, innervated muscle / TA weight, innervated muscle / sol (soleus) weight, innervated muscle / Body weight after / Body weight before: individual mice; for TA weight, innervated muscle, MEAN / sol (soleus) weight, innervated muscle, MEAN / Body weight after, MEAN / Body weight before, MEAN: mean of 6 mice; for Body weight after, MEAN / Body weight before, MEAN: in g",
  "procedure": "Rapamycin (LC Laboratories; Woburn, Mass.) was initially dissolved in 100% ethanol, stored at −20° C., and further diluted in an aqueous solution of 5.2% Tween 80 and 5.2% PEG 400 (final ethanol concentration, 2%) immediately before use (Wendel et al., 2004). Denervated NSA mice (male, 40 g) were injected immediately with rapamycin i.p. at 1.5 mg/kg, or 6 mg/kg body weight, every other day. Control mice were injected with vehicle with the same amount of ethanol solvent with rapamycin group (6 mg·kg). Muscle samples were collected 15 days later. Muscle wet weight was recorded immediately. For immunostaining, muscles were frozen in OCT in dry ice-cold isopentane. For RNA and protein extraction, muscles were quickly frozen in liquid nitrogen. Student t-test was used to evaluate the statistical significance. P<0.05 was considered as statistically significant. Each of these experiments were performed such that there were 3 to 6 separate experimental mice (for each genotype, dose, and time-point) and 3-6 separate control mice per experiment.",
  "key": {"[1]": {"conditions": "Inn + 1.5 (rapamycin 1.5 mg/kg i.p. every other day, 15 days), in g (unit assumed)"}, "[2]": {"conditions": "Inn + 1.5 (rapamycin 1.5 mg/kg), in g (unit assumed)"}, "[3]": {"conditions": "Inn + 6 (rapamycin 6 mg/kg i.p. every other day, 15 days)"}, "[4]": {"conditions": "Inn + 6 (rapamycin 6 mg/kg), in g (unit assumed)"}, "[5]": {"conditions": "rapamycin at the doses used (1.5 or 6 mg/kg i.p. every other day)"}},
  "note": "“And” between values parts separate entries of the source, which are not always exact repeats. Equal entries are not always repeated.",
  "data": [
    {"smiles": "CO[C@H]1C[C@@H]2CC[C@@H](C)[C@@](O)(O2)C(=O)C(=O)N2CCCC[C@H]2C(=O)O[C@H]([C@H](C)C[C@@H]2CC[C@@H](O)[C@H](OC)C2)CC(=O)[C@H](C)/C=C(\\C)[C@@H](O)[C@@H](OC)C(=O)[C@H](C)C[C@H](C)/C=C/C=C/C=C/1C", "note": "[rapamycin, Rapamycin]", "values": [
      {"measurement": "Gastroc weight, innervated muscle", "setting": "Inn + 1.5 (rapamycin 1.5 mg/kg i.p. every other day, 15 days)", "value": "0.1984 and 0.2043 and 0.2062 and 167.3 and 196.7"},
      {"measurement": "TA weight, innervated muscle", "setting": "[1]", "value": "0.0719 and 0.0697 and 0.068 and 0.0898 and 0.0795 and 0.0597"},
      {"measurement": "sol (soleus) weight, innervated muscle", "setting": "[1]", "value": "0.0114 and 0.0095 and 0.0099 and 0.0106 and 0.0102 and 0.0075"},
      {"measurement": "TA weight, innervated muscle, MEAN", "setting": "[2]", "value": 0.0731},
      {"measurement": "sol (soleus) weight, innervated muscle, MEAN", "setting": "[2]", "value": 0.00985},
      {"measurement": "Gastroc weight, innervated muscle", "setting": "[3]", "value": "0.2084 and 0.2168 and 0.1798 and 217.7 and 230.5"},
      {"measurement": "sol (soleus) weight, innervated muscle", "setting": "[3]", "value": "0.0102 and 0.0116 and 0.0106 (3×) and 0.0115"},
      {"measurement": "TA weight, innervated muscle", "setting": "Inn + 6 (rapamycin 6 mg/kg i.p. every other day, 15 days), in g (unit assumed)", "value": "0.0686 and 0.0751 and 0.0645 and 0.078 and 0.0713 and 0.0759"},
      {"measurement": "TA weight, innervated muscle, MEAN", "setting": "[4]", "value": 0.07223},
      {"measurement": "sol (soleus) weight, innervated muscle, MEAN", "setting": "[4]", "value": 0.01085},
      {"measurement": "Body weight after", "setting": "Rapa − 1.5, after", "value": "45 and 46 and 42 (2×) and 40 and 39"},
      {"measurement": "Body weight after, MEAN", "setting": "Rapa − 1.5, after", "value": 42.33},
      {"measurement": "Body weight before", "setting": "Rapa − 1.5, before", "value": "41 g (2×) and 46 g and 44 g and 42 g (2×)"},
      {"measurement": "Body weight before, MEAN", "setting": "Rapa − 1.5, before", "value": 42.67},
      {"measurement": "Body weight after", "setting": "Rapa − 6, after, in g (unit assumed)", "value": "46 and 38 and 41 and 42 and 40 and 39"},
      {"measurement": "Body weight after, MEAN", "setting": "Rapa − 6, after", "value": 41},
      {"measurement": "Body weight before", "setting": "Rapa − 6, before, in g (unit assumed)", "value": "39 and 42 and 55 and 43 and 41 and 44"},
      {"measurement": "Body weight before, MEAN", "setting": "Rapa − 6, before", "value": 44},
      {"measurement": "influence on body weight", "setting": "[5]", "value": "did not influence"},
      {"measurement": "influence on innervated muscle weight", "setting": "[5]", "value": "does not change"},
      {"measurement": "influence on innervated muscle weight", "setting": "rapamycin at the doses used (1.5 or 6 mg/kg i.p. every other day), listed as Rapamycin", "value": "did not influence"}
    ]}
  ]
}
